Test results: patent US20260184706A1, “PHENYLSULFONAMIDE DERIVATIVES, PREPARATION METHOD THEREFOR, AND PHARMACEUTICAL COMPOSITION FOR PREVENTION OR TREATMENT OF CANCER CONTAINING SAME AS ACTIVE INGREDIENT” (Korea Research Institute of Chemical Technology, priority 2022, published 2026)
pIC50: −log10 of the molar value.

Columns and labels:
[1] = target: T1, recombinant human PERK protein (Homo sapiens, UniProt Q9NZJ5); test: PKR-like endoplasmic reticulum kinase (PERK) inhibitory capacity, 33P-ATP filter assay; type: biochemical; conditions: 15 uM [gamma-33P-ATP], 40 minutes, room temperature
T1 sequence (Q9NZJ5 30-1116): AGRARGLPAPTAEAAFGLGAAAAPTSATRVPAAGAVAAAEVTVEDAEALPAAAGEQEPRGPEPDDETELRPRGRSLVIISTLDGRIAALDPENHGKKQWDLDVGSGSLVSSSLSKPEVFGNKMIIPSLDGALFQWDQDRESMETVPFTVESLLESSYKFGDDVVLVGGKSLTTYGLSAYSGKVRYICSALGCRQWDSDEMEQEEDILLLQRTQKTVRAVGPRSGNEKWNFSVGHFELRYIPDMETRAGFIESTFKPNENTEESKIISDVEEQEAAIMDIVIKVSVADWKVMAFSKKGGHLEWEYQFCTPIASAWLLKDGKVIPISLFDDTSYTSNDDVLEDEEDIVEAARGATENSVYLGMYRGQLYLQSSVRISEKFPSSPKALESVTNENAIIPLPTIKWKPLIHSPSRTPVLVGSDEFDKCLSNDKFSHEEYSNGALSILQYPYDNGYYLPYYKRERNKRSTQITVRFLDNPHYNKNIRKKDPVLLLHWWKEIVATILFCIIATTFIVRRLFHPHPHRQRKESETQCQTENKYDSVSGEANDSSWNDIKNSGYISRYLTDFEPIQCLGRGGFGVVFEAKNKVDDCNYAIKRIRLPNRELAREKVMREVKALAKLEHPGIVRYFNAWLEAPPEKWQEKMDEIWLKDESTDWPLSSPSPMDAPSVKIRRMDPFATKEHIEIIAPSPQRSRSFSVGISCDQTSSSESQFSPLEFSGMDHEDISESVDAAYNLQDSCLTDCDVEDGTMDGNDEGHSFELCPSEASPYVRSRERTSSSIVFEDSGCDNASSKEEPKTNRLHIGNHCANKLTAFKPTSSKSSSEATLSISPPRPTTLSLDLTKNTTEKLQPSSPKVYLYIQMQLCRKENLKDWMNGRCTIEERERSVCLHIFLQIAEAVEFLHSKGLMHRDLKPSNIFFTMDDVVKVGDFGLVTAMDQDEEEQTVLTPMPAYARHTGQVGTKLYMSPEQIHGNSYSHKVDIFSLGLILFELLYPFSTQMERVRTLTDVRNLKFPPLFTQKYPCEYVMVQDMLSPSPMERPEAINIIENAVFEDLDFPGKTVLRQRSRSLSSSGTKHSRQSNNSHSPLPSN
Experimental: <Experimental Example 1> Evaluation of PKR-Like Endoplasmic Reticulum Kinase (PERK) Inhibitory Capacity
A recombinant human PERK protein was mixed with the compound in a reaction solution (8 mM MOPS pH 7.0, 0.2 mM EDTA, 300 uM RSRSRSRSRSRSRSR, 10 mM Magnesium acetate, 15 uM [gamma-33P-ATP]) and reacted at room temperature for 40 minutes. Then, the reaction was terminated by adding phosphoric acid (0.5%) to the reaction mixture, and 10 ul of the reaction solution was dropped onto a P30 filter. The filter was washed four times in a 0.425% phosphoric acid solution for 4 minutes, then washed once more in methanol, dried, and the PERK activity was measured by scintillation counting. […] The compound was diluted by 1/3 from the highest concentration of 1 uM and treated with a total of 9 concentrations to evaluate the degree of inhibition.

[2] = target: recombinant human GCN2 protein (Homo sapiens, UniProt Q9P2K8); test: General control nonderepressible 2 (GCN2) inhibitory capacity, 33P-ATP filter assay; type: biochemical; conditions: recombinant human GCN2, 70 uM [gamma-33P-ATP], 40 minutes, room temperature
Experimental: <Experimental Example 2> Evaluation of General Control Nonderepressible 2 (GCN2) Inhibitory Capacity
A recombinant human GCN2 protein was mixed with the compound in a reaction solution (20 mM Tris/HCl pH8.5, 0.2 mM EDTA, 0.1% Tween, 100 mM NaCl, 300 μM RSRSRSRSRSRSRSR, 10 mM Magnesium acetate, 70 uM [gamma-33P-ATP]) and reacted at room temperature for 40 minutes. Then, the reaction was terminated by adding phosphoric acid (0.5%) to the reaction mixture, and 10 ul of the reaction solution was dropped onto a P30 filter. The filter was washed four times in a 0.425% phosphoric acid solution for 4 minutes, then washed once more in methanol, dried, and the GCN2 activity was measured by scintillation counting. […] The compound was diluted by 1/3 from the highest concentration of 1 uM and treated with a total of 9 concentrations to evaluate the degree of inhibition.

Chain of recombinant human GCN2 protein (Q9P2K8 whole entry): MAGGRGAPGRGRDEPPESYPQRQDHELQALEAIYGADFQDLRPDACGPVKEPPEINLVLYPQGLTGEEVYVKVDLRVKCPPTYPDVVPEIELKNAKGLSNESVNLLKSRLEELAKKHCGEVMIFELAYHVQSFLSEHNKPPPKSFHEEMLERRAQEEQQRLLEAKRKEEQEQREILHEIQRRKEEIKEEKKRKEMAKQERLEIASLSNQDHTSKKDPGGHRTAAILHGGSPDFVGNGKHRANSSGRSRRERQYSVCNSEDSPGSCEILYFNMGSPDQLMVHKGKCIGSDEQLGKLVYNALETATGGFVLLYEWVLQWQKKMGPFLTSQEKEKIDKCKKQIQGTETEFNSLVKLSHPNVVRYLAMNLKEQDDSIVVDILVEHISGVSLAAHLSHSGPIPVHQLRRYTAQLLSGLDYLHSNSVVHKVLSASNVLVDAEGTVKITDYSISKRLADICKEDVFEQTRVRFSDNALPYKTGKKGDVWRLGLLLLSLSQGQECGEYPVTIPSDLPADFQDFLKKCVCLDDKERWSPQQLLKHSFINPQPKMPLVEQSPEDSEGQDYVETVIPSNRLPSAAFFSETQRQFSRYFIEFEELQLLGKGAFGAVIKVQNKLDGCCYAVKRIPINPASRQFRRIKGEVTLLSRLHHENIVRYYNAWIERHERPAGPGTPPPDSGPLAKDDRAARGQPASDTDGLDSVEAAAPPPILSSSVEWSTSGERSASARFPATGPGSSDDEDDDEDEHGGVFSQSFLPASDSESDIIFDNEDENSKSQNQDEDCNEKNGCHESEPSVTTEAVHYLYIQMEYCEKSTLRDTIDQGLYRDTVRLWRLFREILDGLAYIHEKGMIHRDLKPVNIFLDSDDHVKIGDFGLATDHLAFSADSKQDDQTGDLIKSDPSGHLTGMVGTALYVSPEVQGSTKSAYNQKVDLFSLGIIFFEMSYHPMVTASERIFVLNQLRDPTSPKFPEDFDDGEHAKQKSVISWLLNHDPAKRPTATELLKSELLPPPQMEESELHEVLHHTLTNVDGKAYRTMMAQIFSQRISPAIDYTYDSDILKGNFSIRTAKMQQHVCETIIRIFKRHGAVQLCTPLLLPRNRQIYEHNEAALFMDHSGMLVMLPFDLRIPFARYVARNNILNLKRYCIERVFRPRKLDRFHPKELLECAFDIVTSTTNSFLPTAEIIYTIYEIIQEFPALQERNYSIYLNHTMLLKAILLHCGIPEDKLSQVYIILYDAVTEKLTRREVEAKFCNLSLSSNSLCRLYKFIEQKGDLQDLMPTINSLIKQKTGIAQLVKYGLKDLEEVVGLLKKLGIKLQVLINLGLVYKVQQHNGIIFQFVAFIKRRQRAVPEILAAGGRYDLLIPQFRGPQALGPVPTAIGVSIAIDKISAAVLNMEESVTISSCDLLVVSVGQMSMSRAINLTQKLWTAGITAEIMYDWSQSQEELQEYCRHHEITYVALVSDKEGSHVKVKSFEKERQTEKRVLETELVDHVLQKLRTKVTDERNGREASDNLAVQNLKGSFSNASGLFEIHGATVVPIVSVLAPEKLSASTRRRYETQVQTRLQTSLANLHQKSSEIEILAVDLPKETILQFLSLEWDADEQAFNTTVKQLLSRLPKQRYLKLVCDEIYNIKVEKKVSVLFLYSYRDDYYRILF

| SMILES | pIC50 [1] | pIC50 [2] |
| --- | --- | --- |
| COc1ncc(Cl)cc1S(=O)(=O)Nc1ccc(F)c(-c2cc3cnc(N)nc3n(C)c2=O)c1F [Example 4, N-(3-(2-amino-8-methyl-7-oxo-7,8-dihydropyrido[2,3-d]pyrimidin-6-yl)-2,4-difluorophenyl)-5-chloro-2-methoxypyridine-3-sulfonamide] | > 7.00 | < 6.00 |
| Cc1n[nH]c(C)c1S(=O)(=O)Nc1ccc(F)c(-c2cc3cnc(N)nc3n(C)c2=O)c1F [Example 5, N-(3-(2-amino-8-methyl-7-oxo-7,8-dihydropyrido[2,3-d]pyrimidin-6-yl)-2,4-difluorophenyl)-3,5-dimethyl-1H-pyrazole-4-sulfonamide] | < 6.00 | < 6.00 |
| Cn1c(=O)c(-c2c(F)ccc(NS(=O)(=O)c3ccc(Cl)nc3)c2F)cc2cnc(N)nc21 [Example 6, N-(3-(2-amino-8-methyl-7-oxo-7,8-dihydropyrido[2,3-d]pyrimidin-6-yl)-2,4-difluorophenyl)-6-chloropyridine-3-sulfonamide] | < 6.00 | < 6.00 |
| Cn1ccc2c(S(=O)(=O)Nc3ccc(F)c(-c4cc5cnc(N)nc5n(C)c4=O)c3F)cccc21 [Example 7, N-(3-(2-amino-8-methyl-7-oxo-7,8-dihydropyrido[2,3-d]pyrimidin-6-yl)-2,4-difluorophenyl)-1-methyl-1H-indole-4-sulfonamide] | > 7.00 | 6.52 to 7.00 |
| Cc1nn(C(F)F)c(C)c1S(=O)(=O)Nc1ccc(F)c(-c2cc3cnc(N)nc3n(C)c2=O)c1F [Example 8, N-(3-(2-amino-8-methyl-7-oxo-7,8-dihydropyrido[2,3-d]pyrimidin-6-yl)-2,4-difluorophenyl)-1-(difluoromethyl)-3,5-dimethyl-1H-pyrazole-4-sulfonamide] | < 6.00 | < 6.00 |
| Cc1c(S(=O)(=O)Nc2ccc(F)c(-c3cc4cnc(N)nc4n(C)c3=O)c2F)c(CO)nn1C [Example 10, N-(3-(2-amino-8-methyl-7-oxo-7,8-dihydropyrido[2,3-d]pyrimidin-6-yl)-2,4-difluorophenyl)-3-(hydroxymethyl)-1,5-dimethyl-1H-pyrazole-4-sulfonamide] | < 6.00 | < 6.00 |
| Cn1c(=O)c(-c2c(F)ccc(NS(=O)(=O)c3cc(F)ccc3F)c2F)cc2cnc(N)nc21 [Example 12, N-(3-(2-amino-8-methyl-7-oxo-7,8-dihydropyrido[2,3-d]pyrimidin-6-yl)-2,4-difluorophenyl)-2,5-difluorobenzene sulfonamide] | > 7.00 | 6.52 to 7.00 |
| Cc1noc(C)c1S(=O)(=O)Nc1ccc(F)c(-c2cc3cnc(N)nc3n(C)c2=O)c1F [Example 13, N-(3-(2-amino-8-methyl-7-oxo-7,8-dihydropyrido[2,3-d]pyrimidin-6-yl)-2,4-difluorophenyl)-3,5-dimethylisoxazole-4-sulfonamide] | 6.00 to 6.52 | 6.52 to 7.00 |
| Cn1c(=O)c(-c2c(F)ccc(NS(=O)(=O)c3cc(Cl)ccc3Cl)c2F)cc2cnc(N)nc21 [Example 14, N-(3-(2-amino-8-methyl-7-oxo-7,8-dihydropyrido[2,3-d]pyrimidin-6-yl)-2,4-difluorophenyl)-2,5-dichlorobenzenesulfonamide] | > 7.00 | > 7.00 |
| Cn1c(=O)c(-c2c(F)ccc(NS(=O)(=O)c3c(Cl)nc4sccn34)c2F)cc2cnc(N)nc21 [Example 15, N-(3-(2-amino-8-methyl-7-oxo-7,8-dihydropyrido[2,3-d]pyrimidin-6-yl)-2,4-difluorophenyl)-6-chloroimidazo[2,1-b]thiazole-5-sulfonamide] | 6.52 to 7.00 | 6.00 to 6.52 |
| Cn1c(=O)c(-c2c(F)ccc(NS(=O)(=O)c3cccc4ccccc34)c2F)cc2cnc(N)nc21 [Example 16, N-(3-(2-amino-8-methyl-7-oxo-7,8-dihydropyrido[2,3-d]pyrimidin-6-yl)-2,4-difluorophenyl)naphthalene-1-sulfonamide] | > 7.00 | 6.52 to 7.00 |
| Cn1c(=O)c(-c2c(F)ccc(NS(=O)(=O)c3ccc(Cl)s3)c2F)cc2cnc(N)nc21 [Example 19, N-(3-(2-amino-8-methyl-7-oxo-7,8-dihydropyrido[2,3-d]pyrimidin-6-yl)-2,4-difluorophenyl)-5-chlorothiophene-2-sulfonamide] | > 7.00 | > 7.00 |
| CNc1ncc2cc(-c3c(F)ccc(NS(=O)(=O)c4cc(Cl)ccc4Cl)c3F)c(=O)n(C)c2n1 [Example 20, 2,5-dichloro-N-(2,4-difluoro-3-(8-methyl-2-(methylamino)-7-oxo-7,8-dihydropyrido[2,3-d]pyrimidin-6-yl)phenyl)benzenesulfonamide] | < 6.00 | 6.52 to 7.00 |

Results, then the molecule that gave them:

| pIC50 [1] | pIC50 [2] | SMILES |
| --- | --- | --- |
| 6.00 to 6.52 | 6.52 to 7.00 | Cc1nn(C)c(C(F)(F)F)c1S(=O)(=O)Nc1ccc(F)c(-c2cc3cnc(N)nc3n(C)c2=O)c1F [Example 1, N-(3-(2-amino-8-methyl-7-oxo-7,8-dihydropyrido[2,3-d]pyrimidin-6-yl)-2,4-difluorophenyl)-1,3-dimethyl-5-(trifluoromethyl)-1H-pyrazole-4-sulfonamide] |
| 6.00 to 6.52 | < 6.00 | Cc1nn(C)c(Cl)c1S(=O)(=O)Nc1ccc(F)c(-c2cc3cnc(N)nc3n(C)c2=O)c1F [Example 2, N-(3-(2-amino-8-methyl-7-oxo-7,8-dihydropyrido[2,3-d]pyrimidin-6-yl)-2,4-difluorophenyl)-5-chloro-1,3-dimethyl-1H-pyrazole-4-sulfonamide] |
| < 6.00 | 6.00 to 6.52 | Cc1nn(C)c(C)c1S(=O)(=O)Nc1ccc(F)c(-c2cc3cnc(N)nc3n(C)c2=O)c1F [Example 3, N-(3-(2-amino-8-methyl-7-oxo-7,8-dihydropyrido[2,3-d]pyrimidin-6-yl)-2,4-difluorophenyl)-1,3,5-trimethyl-1H-pyrazole-4-sulfonamide] |
| < 6.00 | 6.00 to 6.52 | Cc1c(S(=O)(=O)Nc2ccc(F)c(-c3cc4cnc(N)nc4n(C)c3=O)c2F)c(Cl)nn1C [Example 9, N-(3-(2-amino-8-methyl-7-oxo-7,8-dihydropyrido[2,3-d]pyrimidin-6-yl)-2,4-difluorophenyl)-3-chloro-1,5-dimethyl-1H-pyrazole-4-sulfonamide] |
| 6.52 to 7.00 | 6.52 to 7.00 | Cn1c(=O)c(-c2c(F)ccc(NS(=O)(=O)c3cccnc3Cl)c2F)cc2cnc(N)nc21 [Example 11, N-(3-(2-amino-8-methyl-7-oxo-7,8-dihydropyrido[2,3-d]pyrimidin-6-yl)-2,4-difluorophenyl)-2-chloropyridine-3-sulfonamide] |
| 6.52 to 7.00 | 6.00 to 6.52 | Cn1cc(S(=O)(=O)Nc2ccc(F)c(-c3cc4cnc(N)nc4n(C)c3=O)c2F)c(C(F)(F)F)n1 [Example 17, N-(3-(2-amino-8-methyl-7-oxo-7,8-dihydropyrido[2,3-d]pyrimidin-6-yl)-2,4-difluorophenyl)-1-methyl-3-(trifluoromethyl)-1H-pyrazole-4-sulfonamide] |
| > 7.00 | 6.52 to 7.00 | Cn1c(=O)c(-c2c(F)ccc(NS(=O)(=O)c3cc(C(F)(F)F)ccc3Cl)c2F)cc2cnc(N)nc21 [Example 18, N-(3-(2-amino-8-methyl-7-oxo-7,8-dihydropyrido[2,3-d]pyrimidin-6-yl)-2,4-difluorophenyl)-2-chloro-5-(trifluoromethyl)benzenesulfonamide] |
